Key:
[1] = target: T1, Melatonin receptor type 1B (Homo sapiens, UniProt P49286); assay: Binding affinity against human Melatonin receptor type 1B by using 2-[125I]iodomelatonin as radioligand
T1 sequence (P49286 whole entry): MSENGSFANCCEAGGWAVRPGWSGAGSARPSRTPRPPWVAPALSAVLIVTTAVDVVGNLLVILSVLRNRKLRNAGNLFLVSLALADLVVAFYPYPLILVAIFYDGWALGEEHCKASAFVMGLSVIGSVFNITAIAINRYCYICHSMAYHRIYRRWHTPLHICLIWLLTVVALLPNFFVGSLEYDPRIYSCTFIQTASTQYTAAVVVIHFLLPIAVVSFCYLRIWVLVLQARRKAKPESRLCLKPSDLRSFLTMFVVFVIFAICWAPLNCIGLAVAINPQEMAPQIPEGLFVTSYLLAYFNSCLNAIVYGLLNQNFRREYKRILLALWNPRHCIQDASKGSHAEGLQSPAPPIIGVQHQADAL

[2] = target: Melatonin receptor type 1A (Homo sapiens, UniProt P48039); assay: Binding affinity against human Melatonin receptor type 1A by using 2-[125I]iodomelatonin as radioligand
Sequence of Melatonin receptor type 1A (P48039 whole entry): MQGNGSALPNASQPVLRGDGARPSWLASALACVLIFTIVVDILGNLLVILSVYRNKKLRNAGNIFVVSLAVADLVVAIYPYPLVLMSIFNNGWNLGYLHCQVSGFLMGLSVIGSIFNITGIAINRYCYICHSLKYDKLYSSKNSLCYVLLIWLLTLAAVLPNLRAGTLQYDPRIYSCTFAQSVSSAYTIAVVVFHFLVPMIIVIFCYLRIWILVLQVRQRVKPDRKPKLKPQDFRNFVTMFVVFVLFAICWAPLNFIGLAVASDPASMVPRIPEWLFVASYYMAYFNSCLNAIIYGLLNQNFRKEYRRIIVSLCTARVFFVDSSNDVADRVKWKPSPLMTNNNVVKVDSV

[3] = target: Melatonin receptor type 1B (Homo sapiens) (UniProt P49286); assay: Intrinsic activity against human melatonin receptor (MT)
[4] = target: Melatonin receptor type 1B (Homo sapiens) (UniProt P49286); assay: Agonist activity for its ability to inhibit forskolin-stimulated cAMP accumulation against MT2 receptor
[5] = target: T2, Melatonin receptor (Homo sapiens, UniProt P48039+P49286); assay: Agonist activity for its ability to inhibit forskolin-stimulated cAMP accumulation against MT1 receptor; type: functional
T2 sequence (P48039 whole entry, looked up, one chain of several): as the sequence (P48039 whole entry) above

[6] = target: T2, Melatonin receptor; assay: Intrinsic activity against human melatonin receptor (MT); type: protein assay

Ki [1] [nM]	Ki [2] [nM]	Activity [3]	EC50 [4] [nM]	EC50 [5] [nM]	Activity [6]	Structure (SMILES)
2.3	9	–	–	–	–	CCc1nc2cccc(CCCNC(C)=O)c2o1
1	8.1	–	–	–	–	CCCC(=O)NCCCc1cccc2nc(CC)oc12
2.7	0.7	0.96	0.74	–	–	Cc1nc2cccc(CCCNC(=O)C3CC3)c2o1
10	13.1	–	–	–	–	CCC(=O)NCCCc1cccc2nc(-c3ccccc3)oc12
26	50	–	–	–	–	CCNC(=O)NCCCc1cccc2nc(C)oc12
2.2	2.3	–	–	–	–	CCCC(=O)NCCCc1cccc2nc(C)oc12
4.7	4.5	–	–	–	–	CCc1nc2cccc(CCCNC(=O)C3CC3)c2o1
12	75	–	–	–	–	CCNC(=O)NCCCc1cccc2nc(CC)oc12
27	51	–	–	–	–	CCCc1nc2cccc(CCCNC(=O)CC)c2o1
36	492	–	–	–	–	CCCc1nc2cccc(CCCNC(=O)NCC)c2o1
29	60	–	–	–	–	CCCc1nc2cccc(CCCNC(=O)C(C)C)c2o1
4.5	13.2	–	–	–	–	CCc1nc2cccc(CCCNC(=O)C(C)C)c2o1
89	40	–	–	–	–	CC(=O)NCCCc1cccc2nc(-c3ccccc3)oc12
38	23	–	–	–	–	O=C(NCCCc1cccc2nc(-c3ccccc3)oc12)C1CC1
5.3	24	–	–	–	–	CC(=O)NCCCc1cccc2nc(C)oc12
1.8	6.6	–	–	–	–	CCC(=O)NCCCc1cccc2ncoc12
18	1.3	–	–	–	–	CC(C)C(=O)NCCCc1cccc2nc(CCCCc3ccccc3)oc12
16	1.3	–	–	–	–	CC(=O)NCCCc1cccc2nc(CCCCc3ccccc3)oc12
14	0.76	–	–	–	–	CCC(=O)NCCCc1cccc2nc(CCCCc3ccccc3)oc12

Ki [1] [nM]	Ki [2] [nM]	Activity [3]	EC50 [4] [nM]	EC50 [5] [nM]	Activity [6]	Structure (SMILES)
1	3.5	–	–	–	–	CCC(=O)NCCCc1cccc2nc(CC)oc12
61	340	–	–	–	–	CCNC(=O)NCCCc1cccc2nc(-c3ccccc3)oc12
7.6	44	–	–	–	–	CCCc1nc2cccc(CCCNC(=O)C3CC3)c2o1
57	87	–	–	–	–	CC(C)C(=O)NCCCc1cccc2nc(-c3ccccc3)oc12
114	34	–	–	–	–	CC(C)c1nc2cccc(CCCNC(=O)C3CC3)c2o1
2.8	2.8	–	–	0.26	0.98	CCC(=O)NCCCc1cccc2nc(C)oc12
29	3.3	–	–	–	–	CCCC(=O)NCCCc1cccc2nc(CCCCc3ccccc3)oc12
17	60	–	–	–	–	CCCC(=O)NCCCc1cccc2nc(-c3ccccc3)oc12
3.7	9.9	–	–	–	–	CCCC(=O)NCCCc1cccc2ncoc12
4.3	30	–	–	–	–	CC(=O)NCCCc1cccc2ncoc12
35	116	–	–	–	–	CC(=O)NCCCc1cccc2nc(C(C)C)oc12
16	119	–	–	–	–	CCCC(=O)NCCCc1cccc2nc(C(C)C)oc12
22	0.63	–	–	–	–	O=C(NCCCc1cccc2nc(CCCCc3ccccc3)oc12)C1CC1
35	183	–	–	–	–	CCCc1nc2cccc(CCCNC(C)=O)c2o1
52	194	–	–	–	–	CCNC(=O)NCCCc1cccc2nc(C(C)C)oc12
15	142	–	–	–	–	CCC(=O)NCCCc1cccc2nc(C(C)C)oc12
2.3	3	–	–	–	–	Cc1nc2cccc(CCCNC(=O)C(C)C)c2o1
22	166	–	–	–	–	CCCC(=O)NCCCc1cccc2nc(CCC)oc12
88	40	–	–	–	–	CC(C)C(=O)NCCCc1cccc2nc(C(C)C)oc12

— ChEMBL document CHEMBL1146812 (Bioorg Med Chem Lett, 2004)
